Experimental findings from patent publication US20240024488A1, “COMPOUNDS AND USES THEREOF” (Foghorn Therapeutics Inc., priority 2020, published 2024) are described below.

The target in one assay is T1, HiBit-BRM fusion protein (Homo sapiens, UniProt P51531).
T1 construct: expressed in transfected cells
In words: HiBiT-BRM cell-based degradation assay (Nano-Glo HiBiT Lytic Detection, 24 h). The note with it: HeLa cell line expressing HiBiT-BRM; for DC50: read-out: BRM HiBit Degradation IC50. A digest of the protocol:
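Stable HiBiT-BRM HeLa line; 24 h compound exposure, top final 30 μM, 3-fold, 10 pts in duplicate. Lytic HiBiT/LgBiT luminescence readout. % degradation vs DMSO (0%) and 2 μM known BRM/BRG1 degrader (100%).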

Assay [1] addresses T2, HiBit-BRG1 fusion protein (Homo sapiens, UniProt P51532).
T2 construct: expressed in transfected cells
Description: HiBiT-BRG1 cell-based degradation assay (Nano-Glo HiBiT Lytic Detection, 24 h). Conditions: HeLa cell line expressing HiBit-BRG1 and LgBit; for Dmax: read-out: BRG1 HiBit Degradation Maximum (%). A digest of the protocol: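 Percent degradation derived from lytic HiBiT signal, normalized to DMSO-treated cells and to cells given 2 μM of a known BRM/BRG1 degrader. The HeLa line stably expressed HiBit-BRG1 and LgBit; treatment lasted 24 h at 5000 cells per well.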
(In general: With HiBiT, luminescence reflects the tagged protein that the partner subunit can reach.)

Where [2] appears, read: read-out: BRMG1 HiBit Degradation IC50.

T1 sequence (P51531 whole entry, the tested form may be a part): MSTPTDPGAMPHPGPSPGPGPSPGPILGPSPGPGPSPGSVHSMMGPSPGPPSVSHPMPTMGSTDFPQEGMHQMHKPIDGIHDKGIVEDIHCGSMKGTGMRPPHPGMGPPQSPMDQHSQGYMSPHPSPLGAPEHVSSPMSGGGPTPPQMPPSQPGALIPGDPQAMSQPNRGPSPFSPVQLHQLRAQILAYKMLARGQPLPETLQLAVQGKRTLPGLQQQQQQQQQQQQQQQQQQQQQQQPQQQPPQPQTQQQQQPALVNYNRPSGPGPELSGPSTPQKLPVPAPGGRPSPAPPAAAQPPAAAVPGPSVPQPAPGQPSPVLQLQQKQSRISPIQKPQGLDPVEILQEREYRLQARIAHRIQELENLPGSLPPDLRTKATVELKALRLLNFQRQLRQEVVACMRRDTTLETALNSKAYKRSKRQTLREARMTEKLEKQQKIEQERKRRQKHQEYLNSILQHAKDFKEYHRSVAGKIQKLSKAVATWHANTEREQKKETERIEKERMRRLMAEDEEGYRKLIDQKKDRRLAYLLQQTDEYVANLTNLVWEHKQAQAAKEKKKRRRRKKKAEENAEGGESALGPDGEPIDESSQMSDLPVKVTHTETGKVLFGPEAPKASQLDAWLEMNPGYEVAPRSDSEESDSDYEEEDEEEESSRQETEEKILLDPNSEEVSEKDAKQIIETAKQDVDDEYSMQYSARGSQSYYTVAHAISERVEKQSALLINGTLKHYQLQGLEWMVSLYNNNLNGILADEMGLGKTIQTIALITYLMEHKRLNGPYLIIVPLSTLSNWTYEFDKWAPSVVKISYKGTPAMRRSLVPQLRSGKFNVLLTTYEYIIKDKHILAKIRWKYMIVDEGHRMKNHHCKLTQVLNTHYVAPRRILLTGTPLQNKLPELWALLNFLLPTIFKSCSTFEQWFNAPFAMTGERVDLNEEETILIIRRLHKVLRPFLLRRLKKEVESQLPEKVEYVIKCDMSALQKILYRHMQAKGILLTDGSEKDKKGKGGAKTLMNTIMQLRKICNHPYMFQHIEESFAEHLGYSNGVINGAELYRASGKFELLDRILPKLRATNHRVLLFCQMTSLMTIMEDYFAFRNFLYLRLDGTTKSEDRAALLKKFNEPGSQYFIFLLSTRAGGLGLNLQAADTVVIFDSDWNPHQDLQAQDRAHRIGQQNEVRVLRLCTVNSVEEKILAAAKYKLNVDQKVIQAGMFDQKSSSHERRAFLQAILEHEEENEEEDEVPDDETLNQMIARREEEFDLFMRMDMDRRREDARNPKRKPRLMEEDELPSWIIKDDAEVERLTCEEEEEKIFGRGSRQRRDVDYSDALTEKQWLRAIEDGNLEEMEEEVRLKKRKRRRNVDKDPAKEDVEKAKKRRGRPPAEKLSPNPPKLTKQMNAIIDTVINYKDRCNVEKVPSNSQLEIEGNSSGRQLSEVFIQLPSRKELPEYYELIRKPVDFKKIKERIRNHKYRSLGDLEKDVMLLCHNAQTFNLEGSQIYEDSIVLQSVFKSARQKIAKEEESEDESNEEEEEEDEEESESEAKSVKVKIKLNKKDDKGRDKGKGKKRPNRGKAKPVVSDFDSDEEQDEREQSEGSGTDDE
T2 sequence (P51532 whole entry, the tested form may be a part): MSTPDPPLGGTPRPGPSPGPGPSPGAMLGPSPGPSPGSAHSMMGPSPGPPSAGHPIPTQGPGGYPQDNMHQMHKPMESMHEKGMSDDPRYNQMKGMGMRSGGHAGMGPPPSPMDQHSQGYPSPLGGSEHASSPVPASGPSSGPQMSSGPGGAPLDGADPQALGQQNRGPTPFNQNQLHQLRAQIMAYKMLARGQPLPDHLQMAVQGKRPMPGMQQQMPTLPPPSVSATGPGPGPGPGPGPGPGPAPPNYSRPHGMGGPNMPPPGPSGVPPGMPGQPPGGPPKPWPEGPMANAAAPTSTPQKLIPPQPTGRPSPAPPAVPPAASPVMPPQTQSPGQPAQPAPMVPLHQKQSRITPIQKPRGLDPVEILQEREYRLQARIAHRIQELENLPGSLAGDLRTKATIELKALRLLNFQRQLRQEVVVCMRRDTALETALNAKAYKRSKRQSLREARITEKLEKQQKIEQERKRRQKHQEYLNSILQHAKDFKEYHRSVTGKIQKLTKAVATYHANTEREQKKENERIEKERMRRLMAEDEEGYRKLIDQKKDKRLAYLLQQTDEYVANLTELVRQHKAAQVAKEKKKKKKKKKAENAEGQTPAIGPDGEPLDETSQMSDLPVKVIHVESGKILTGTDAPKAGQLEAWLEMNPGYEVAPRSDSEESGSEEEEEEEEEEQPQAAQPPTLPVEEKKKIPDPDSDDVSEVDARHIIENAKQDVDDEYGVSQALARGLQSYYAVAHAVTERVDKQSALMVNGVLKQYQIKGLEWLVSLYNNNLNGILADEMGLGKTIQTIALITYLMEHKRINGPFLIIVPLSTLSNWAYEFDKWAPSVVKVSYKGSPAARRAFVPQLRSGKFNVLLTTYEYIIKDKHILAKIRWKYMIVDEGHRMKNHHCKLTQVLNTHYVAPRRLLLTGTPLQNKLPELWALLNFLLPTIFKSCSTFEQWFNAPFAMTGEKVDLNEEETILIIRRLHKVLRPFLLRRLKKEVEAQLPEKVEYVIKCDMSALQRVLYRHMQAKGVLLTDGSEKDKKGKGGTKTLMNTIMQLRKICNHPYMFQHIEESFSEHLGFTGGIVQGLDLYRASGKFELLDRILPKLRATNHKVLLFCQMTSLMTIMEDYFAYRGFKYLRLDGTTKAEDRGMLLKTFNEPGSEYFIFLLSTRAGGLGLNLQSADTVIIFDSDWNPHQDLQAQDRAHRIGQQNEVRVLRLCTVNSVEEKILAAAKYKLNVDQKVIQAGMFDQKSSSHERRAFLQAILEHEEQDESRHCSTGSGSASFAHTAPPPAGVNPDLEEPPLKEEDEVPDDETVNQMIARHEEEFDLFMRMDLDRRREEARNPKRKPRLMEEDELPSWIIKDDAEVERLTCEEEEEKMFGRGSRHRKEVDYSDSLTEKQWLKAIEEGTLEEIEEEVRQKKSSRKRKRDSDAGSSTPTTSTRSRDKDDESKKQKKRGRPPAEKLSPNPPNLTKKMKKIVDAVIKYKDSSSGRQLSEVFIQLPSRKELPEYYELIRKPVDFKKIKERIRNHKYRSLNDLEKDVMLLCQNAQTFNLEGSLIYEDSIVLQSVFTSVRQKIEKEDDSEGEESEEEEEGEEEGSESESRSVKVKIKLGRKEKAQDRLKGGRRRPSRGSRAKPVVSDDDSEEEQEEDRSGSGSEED

On to `Cc1ncsc1-c1ccc([C@H](C)NC(=O)[C@@H]2C[C@@H](O)CN2C(=O)[C@@H](c2cc(N3CCC(C(=O)N4CC5(Cc6cc(-c7ccccc7O)nnc6N5)C4)CC3)no2)C(C)C)cc1` (racemic) [Compound 97, (2S,4R)-4-hydroxy-1-((R)-2-(3-(4-(3′-(2-hydroxyphenyl)-5′,7′-dihydrospiro[azetidine-3,6′-pyrrolo[2,3-c]pyridazine]-1-carbonyl)piperidin-1-yl)isoxazol-5-yl)-3-methylbutanoyl)-N-((S)-1-(4-(4-methylthiazol-5-yl)phenyl)ethyl)pyrrolidine-2-carboxamide], for which, on HiBit-BRM fusion protein, the “BRM HiBit Degradation Maximum (%)” value is recorded as “A (“A” indicates maximum degradation ≥ 75%)” and the DC50 was greater than 100 nM. Also, the Dmax in assay [1] is less than 50%.
As for `Cc1ncsc1-c1ccc([C@H](C)NC(=O)[C@@H]2C[C@@H](O)CN2C(=O)[C@@H](c2cc(N3CCN(C(=O)[C@H]4C[C@]5(Cc6cc(-c7ccccc7O)nnc6N5)C4)CC3)no2)C(C)C)cc1` [Compound 77, (2S,4R)-4-hydroxy-1-((R)-2-(3-(4-((1S,3r)-3′-(2-hydroxyphenyl)-5′,7′-dihydrospiro[cyclobutane-1,6′-pyrrolo[2,3-c]pyridazine]-3-carbonyl)piperazin-1-yl)isoxazol-5-yl)-3-methylbutanoyl)-N-((S)-1-(4-(4-methylthiazol-5-yl)phenyl)ethyl)pyrrolidine-2-carboxamide], at HiBit-BRM fusion protein, the “BRM HiBit Degradation Maximum (%)” value is “A (“A” indicates maximum degradation ≥ 75%)” and the IC50 (commonly the concentration needed to halve the response being measured) is greater than 10 nM. The “BRG1 HiBit Degradation Maximum (%)” value in assay [1] is “A (“A” indicates maximum degradation ≥ 75%)”. Further, the IC50 in assay [1] (setting [2]) is greater than 100 nM.
As to `Cc1ncsc1-c1ccc(CNC(=O)[C@@H]2C[C@@H](O)CN2C(=O)[C@@H](NC(=O)CCCCCNCCC(=O)N2CC(c3c[nH]c4nnc(-c5ccccc5O)cc34)C2)C(C)(C)C)cc1` (racemic) [Compound 57, (2S,4R)-4-hydroxy-1-((S)-2-(6-((3-(3-(3-(2-hydroxyphenyl)-7H-pyrrolo[2,3-c]pyridazin-5-yl)azetidin-1-yl)-3-oxopropyl)amino)hexanamido)-3,3-dimethylbutanoyl)-N-(4-(4-methylthiazol-5-yl)benzyl)pyrrolidine-2-carboxamide], the “BRM HiBit Degradation Maximum (%)” value at HiBit-BRM fusion protein is “C (“C” indicates maximum degradation < 50%)”. Moreover, in assay [1], the Dmax is less than 50%.
Consider `Cc1ncsc1-c1ccc([C@H](C)NC(=O)[C@@H]2C[C@@H](O)CN2C(=O)[C@@H](c2cc(OCCN3CCC[C@@H]3c3c[nH]c4nnc(-c5ccccc5O)cc34)no2)C(C)C)cc1` (single isomer, unassigned) [Compound 228], for which the “BRM HiBit Degradation Maximum (%)” value at HiBit-BRM fusion protein is given as “C (“C” indicates maximum degradation < 50%)”. In addition, the Dmax in assay [1] is less than 50%.
For the compound `Cc1ncsc1-c1ccc([C@H](C)NC(=O)[C@@H]2C[C@@H](O)CN2C(=O)[C@@H](c2cc(N(C)CCN3CC(c4cc5cc(-c6ccccc6O)nnc5[nH]4)C3)no2)C(C)C)cc1` (racemic) [Compound 256], at HiBit-BRM fusion protein, the “BRM HiBit Degradation Maximum (%)” value is “A (“A” indicates maximum degradation ≥ 75%)” and the DC50 was greater than 100 nM. Also, the Dmax in assay [1] was less than 50%.
As for `Cc1ncsc1-c1ccc([C@H](C)NC(=O)[C@@H]2C[C@@H](O)CN2C(=O)[C@@H](c2cc(N3C[C@@H]4C[C@H]3CN4C(=O)[C@@H]3CCc4[nH]c5nnc(-c6ccccc6O)cc5c4C3)no2)C(C)C)cc1` (single isomer, unassigned) [Compound 102], the “BRM HiBit Degradation Maximum (%)” value at HiBit-BRM fusion protein is “A (“A” indicates maximum degradation ≥ 75%)”. For the same compound, the Dmax in assay [1] is less than 50%.
For the compound `Cc1ncsc1-c1ccc([C@H](C)NC(=O)[C@@H]2C[C@@H](O)CN2C(=O)[C@@H](c2cc(OCCN3CC(c4[nH]c5nnc(-c6ccccc6O)cc5c4C)C3)no2)C(C)C)cc1` (racemic) [Compound 307, (2S,4R)-4-hydroxy-1-((R)-2-(3-(2-(3-(3-(2-hydroxyphenyl)-5-methyl-7H-pyrrolo[2,3-c]pyridazin-6-yl)azetidin-1-yl)ethoxy)isoxazol-5-yl)-3-methylbutanoyl)-N-((S)-1-(4-(4-methylthiazol-5-yl)phenyl)ethyl)pyrrolidine-2-carboxamide], the “BRM HiBit Degradation Maximum (%)” value at HiBit-BRM fusion protein is given as “A (“A” indicates maximum degradation ≥ 75%)”. Also, the DC50 at HiBit-BRM fusion protein is less than 10 nM; in assay [1] (setting [2]), greater than 10 nM. Moreover, the Dmax in assay [1] is greater than 75%.
As to `Cc1ncsc1-c1ccc(CNC(=O)[C@@H]2C[C@@H](O)CN2C(=O)[C@@H](NC(=O)CCCCCCCCCCC(=O)N2CC(c3cc4cc(-c5ccccc5O)nnc4[nH]3)C2)C(C)(C)C)cc1` [Compound 4, (2S,4R)-4-hydroxy-1-((S)-2-(12-(3-(3-(2-hydroxyphenyl)-7H-pyrrolo[2,3-c]pyridazin-6-yl)azetidin-1-yl)-12-oxododecanamido)-3,3-dimethylbutanoyl)-N-(4-(4-methylthiazol-5-yl)benzyl)pyrrolidine-2-carboxamide], at HiBit-BRM fusion protein, the “BRM HiBit Degradation Maximum (%)” value is recorded as “A (“A” indicates maximum degradation ≥ 75%)” and the DC50 was greater than 100 nM. The Dmax in assay [1] is less than 50%.
Regarding `Cc1ncsc1-c1ccc([C@H](C)NC(=O)[C@@H]2C[C@@H](O)CN2C(=O)[C@@H](c2cc(OCCN3CCC(C)(c4cc5cc(-c6ccccc6O)nnc5[nH]4)CC3)no2)C(C)C)cc1` (racemic) [Compound 276, (2S,4R)-4-hydroxy-1-((R)-2-(3-(2-(4-(3-(2-hydroxyphenyl)-7H-pyrrolo[2,3-c]pyridazin-6-yl)-4-methylpiperidin-1-yl)ethoxy)isoxazol-5-yl)-3-methylbutanoyl)-N-((S)-1-(4-(4-methylthiazol-5-yl)phenyl)ethyl)pyrrolidine-2-carboxamide], the “BRM HiBit Degradation Maximum (%)” value on HiBit-BRM fusion protein is on record as “A (“A” indicates maximum degradation ≥ 75%)”. For the same compound, the DC50 at HiBit-BRM fusion protein was greater than 10 nM; in assay [1] (setting [2]), greater than 1000 nM. Besides, the Dmax in assay [1] was greater than 50%.
As for `Cc1ncsc1-c1ccc([C@H](C)NC(=O)[C@@H]2C[C@@H](O)CN2C(=O)[C@@H](c2cc(OCCN3CCCC(c4cc5cc(-c6ccccc6O)nnc5[nH]4)C3)no2)C(C)C)cc1` (mixture of isomers) [Compound 286, (2S,4R)-4-hydroxy-1-((2R)-2-(3-(2-(3-(3-(2-hydroxyphenyl)-7H-pyrrolo[2,3-c]pyridazin-6-yl)piperidin-1-yl)ethoxy)isoxazol-5-yl)-3-methylbutanoyl)-N-((S)-1-(4-(4-methylthiazol-5-yl)phenyl)ethyl)pyrrolidine-2-carboxamide], at HiBit-BRM fusion protein, the “BRM HiBit Degradation Maximum (%)” value is “A (“A” indicates maximum degradation ≥ 75%)” and the DC50 is greater than 10 nM. Further, the Dmax in assay [1] was less than 50%.
The like results for `Cc1ncsc1-c1ccc([C@H](C)NC(=O)[C@@H]2C[C@@H](O)CN2C(=O)[C@@H](c2cc(OCCNCCC(=O)N3CC(c4c[nH]c5nnc(-c6ccccc6O)cc45)C3)no2)C(C)C)cc1` (racemic) [Compound 230, (2S,4R)-4-hydroxy-1-((R)-2-(3-(2-((3-(3-(3-(2-hydroxyphenyl)-7H-pyrrolo[2,3-c]pyridazin-5-yl)azetidin-1-yl)-3-oxopropyl)amino)ethoxy)isoxazol-5-yl)-3-methylbutanoyl)-N-((S)-1-(4-(4-methylthiazol-5-yl)phenyl)ethyl)pyrrolidine-2-carboxamide] were, in that order, “B (“B” indicates maximum degradation ≥ 50%)”, greater than 1000 nM and less than 50%.
For `Cc1ncsc1-c1ccc([C@H](C)NC(=O)[C@@H]2C[C@@H](O)CN2C(=O)[C@@H](c2cc(N3CCC(c4cnc(N5CCC(c6c[nH]c7nnc(-c8ccccc8O)cc67)CC5)nc4)CC3)no2)C(C)C)cc1` (single isomer, unassigned) [Compound 92], at HiBit-BRM fusion protein, the “BRM HiBit Degradation Maximum (%)” value is “A (“A” indicates maximum degradation ≥ 75%)” and the DC50 was greater than 10 nM. Moreover, the Dmax in assay [1] is greater than 75%. Also, the DC50 in assay [1] (setting [2]) was greater than 10 nM.
Consider `O=C1CCC(N2C(=O)c3cccc(OCCCCC(=O)N4CC(c5cc6cc(-c7ccccc7O)nnc6[nH]5)C4)c3C2=O)C(=O)N1` (centres unmarked) [Compound 7, 2-(2,6-dioxopiperidin-3-yl)-4-((5-(3-(3-(2-hydroxyphenyl)-7H-pyrrolo[2,3-c]pyridazin-6-yl)azetidin-1-yl)-5-oxopentyl)oxy)isoindoline-1,3-dione], for which, at HiBit-BRM fusion protein, the “BRM HiBit Degradation Maximum (%)” value is “B (“B” indicates maximum degradation ≥ 50%)” and the DC50 is greater than 1000 nM. The Dmax in assay [1] was greater than 50%. In assay [1] (setting [2]), the DC50 is greater than 1000 nM.
Regarding `Cc1ncsc1-c1ccc([C@H](C)NC(=O)[C@@H]2C[C@@H](O)CN2C(=O)[C@@H](c2cc(OCCN3CC(c4[nH]c5nnc(-c6ccccc6O)cc5c4F)C3)no2)C(C)C)cc1` (racemic) [Compound 121, (2S,4R)-1-[(2R)-2-[3-(2-{3-[5-fluoro-3-(2-hydroxyphenyl)-7H-pyrrolo[2,3-c]pyridazin-6-yl]azetidin-1-yl}ethoxy)-1,2-oxazol-5-yl]-3-methylbutanoyl]-4-hydroxy-N-[(1S)-1-[4-(4-methyl-1,3-thiazol-5-yl)phenyl]ethyl]pyrrolidine-2-carboxamide], at HiBit-BRM fusion protein, the “BRM HiBit Degradation Maximum (%)” value is “A (“A” indicates maximum degradation ≥ 75%)” and the DC50 is greater than 100 nM. Also, the Dmax in assay [1] is less than 50%.
